Data on three compounds can be found in US11851631B2, “Household product delivering cooling sensations” (TAKASAGO INTERNATIONAL CORPORATION, priority 2016, dated 2023).

The target in one assay is T1, human TRPM8 (Homo sapiens, UniProt Q7Z2W7).
T1 construct: expressed in transfected cells; host or cells: HEK-293
Description: TRPM8 activation, Fluo-8 calcium fluorescence (FLIPR) in HEK-293 cells. As to conditions: HEK-293 cells stably transfected with human TRPM8; for EC50: normalised to WS3 EC100. Format: cell-based. Here is the method:
HEK-293 (Human Embryonic Kidney) cells stably transfected with human TRPM8 were grown in a culture medium of EMEM (minimum Essential Medium Eagle) with Earl's salts balanced salt solution (Lonza catalogue No BE12-125F), 5 mL of 200 mM Ultraglutamine 1 (Lonza Catalogue No BE17-605E/U1), 5 mL of 100× Penicillin/Streptomycin (Lonza Catalogue No DE17-602E) 50 mL of Fetal bovine serum (Euroclone Cat No ECS0180L) 2 mL of 100 mg/mL Genticin sulphate (G418 sulphate InvivoGen CatAnt-gn-5).
10,000 cells/well were seeded in a 384 MTP in complete medium. Then after 24 h the culture medium was manually removed. The cells were loaded with 20 μL/well of 0.5× Fluo-8 NW dye in standard Tyrode's buffer (Screen Quest™ Fluo-8 No wash Calcium assay kit supplied by AAT Bioquest catalogue No 26316) The plate was incubated for 1 h at room temperature in the dark. 10 μL/well of test compounds and controls were injected with the FLIPR^TETRA (Molecular Devices) and the emitted fluorescence signal was recorded at 520 nm for 3 min. The compound multiwall plate contained the samples at 8 different doses in quadruplicate data points. The dose response of the samples were performed starting from 100 mM concentration in 100% DMSO with a serial dilution of 1:2 and then diluted in assay buffer at the final concentration of 100 μM, 50 μM, 25 μM, 12.5 μM, 6 μM, 3 μM, 1.5 μM, and 0.7 μM.
In the compound plate was also present a dose response of the reference agonist N ethyl-p-menthane-3-carboxamide (WS3) at 8 concentrations and in duplicate. This reference control dosed as 16 wells (duplicates for each concentration) of reference agonist at EC100 correspond to the MAX signal response (100% activity). There were also 16 wells of blanks i.e. assay buffer without either a test sample or reference agonist which correspond to the MIN signal response (0% activity). MAX and MIN controls are used for data analysis (RZ′ calculation) and normalization of compound activity.
For data analysis the response value is calculated as the maximum signal of the kinetic trace after the injection minus the median of the points before injection and multiplied by the normalization factor (NF). The normalisation factor is the baseline mean of all wells in the plate divided by the baseline of a specific well. […]
The EC50 of the test samples was then calculated using a curve fitting program available within the data analysis software.

The next assay concerns panel of 84 subjects. Description: Comparison of sensations between isopulegol and menthoxypropanediol (cool sensation in the nose). The settings on record: 3% in triethyl citrate, isopulegol compared to menthoxypropanediol, ANOVA p<0.05. In kind it is in vivo, human. Here is the method:
A panel of 84 subjects was selected to take part in a comparative test between isopulegol (available as Coolact (registered trademark) P) and menthoxypropanediol (CAS 87061-04-9, available as Coolact (registered trademark) 10), both known for their cooling effect on skin.
The samples of isopulegol and menthoxypropanediol were prepared by dilution to 3% in Triethyl Citrate (TEC).
Panelists also had to score whether they perceived a cool sensation in the nose, on a scale of +100 (very cool) to −100 (very hot) with 0 (neutral) on the middle of the scale.

SMILES strings stand for the structures.

T1 sequence (Q7Z2W7 whole entry): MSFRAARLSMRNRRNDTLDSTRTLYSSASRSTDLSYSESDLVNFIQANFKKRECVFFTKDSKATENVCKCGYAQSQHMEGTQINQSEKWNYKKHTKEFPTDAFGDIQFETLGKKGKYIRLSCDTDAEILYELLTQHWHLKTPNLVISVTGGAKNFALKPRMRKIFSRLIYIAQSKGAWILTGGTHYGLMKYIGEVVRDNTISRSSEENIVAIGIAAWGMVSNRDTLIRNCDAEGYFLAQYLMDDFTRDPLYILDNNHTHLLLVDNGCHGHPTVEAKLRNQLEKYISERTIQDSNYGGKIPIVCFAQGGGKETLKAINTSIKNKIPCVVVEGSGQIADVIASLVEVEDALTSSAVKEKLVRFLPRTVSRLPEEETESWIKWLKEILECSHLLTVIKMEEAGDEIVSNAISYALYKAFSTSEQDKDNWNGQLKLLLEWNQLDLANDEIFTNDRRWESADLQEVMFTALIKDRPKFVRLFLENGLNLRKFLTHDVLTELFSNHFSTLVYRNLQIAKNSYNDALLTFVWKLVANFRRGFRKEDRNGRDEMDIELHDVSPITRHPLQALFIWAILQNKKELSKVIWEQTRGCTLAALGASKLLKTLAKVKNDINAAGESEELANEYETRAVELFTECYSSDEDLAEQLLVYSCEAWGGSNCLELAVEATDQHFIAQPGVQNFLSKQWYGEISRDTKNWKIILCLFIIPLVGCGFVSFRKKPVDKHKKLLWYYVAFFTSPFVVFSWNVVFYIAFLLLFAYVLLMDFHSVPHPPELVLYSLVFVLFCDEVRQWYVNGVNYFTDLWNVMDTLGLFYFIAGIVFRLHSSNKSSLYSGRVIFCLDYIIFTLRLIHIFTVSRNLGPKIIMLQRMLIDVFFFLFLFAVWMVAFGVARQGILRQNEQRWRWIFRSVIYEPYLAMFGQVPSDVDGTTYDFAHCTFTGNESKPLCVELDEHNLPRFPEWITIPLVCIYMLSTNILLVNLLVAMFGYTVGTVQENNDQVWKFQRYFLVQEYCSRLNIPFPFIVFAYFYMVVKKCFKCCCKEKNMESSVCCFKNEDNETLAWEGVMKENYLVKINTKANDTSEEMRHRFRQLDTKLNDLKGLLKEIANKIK

For the compound `CC(C)[C@@H]1CC[C@@H](C)C[C@H]1OCC(O)CO` (some centres unmarked) [Menthoxypropanediol, menthoxypropanediol], at human TRPM8, the “TRPM8 activation (in words)” value was “activate TRPM8” and the EC50 worked out at 7.7 µM.
As for `C=C(C)[C@@H]1CC[C@@H](C)C[C@H]1O` (racemic) [Isopulegol, isopulegol], the “cooling perception in the nose (in words)” value with panel of 84 subjects is “improved cooling perception”. The “TRPM8 activation (in words)” value at human TRPM8 is on record as “activate TRPM8”.
For `CCNC(=O)C1CC(C)CCC1C(C)C` (centres unmarked) [WS3, N ethyl-p-menthane-3-carboxamide], the EC50 at human TRPM8 turned out to be 6 µM.

The term EC50 denotes the concentration at which the effect is half-maximal.
